Test [1] deals with brown stink bug (Euschistus heros). Put plainly: Field trial on soybean plots against brown stink bug, kill efficiency of the nymphs. The format is in vivo. The note with it: nymphs on soybean cv. BRS232, 14 days after spray treatment; application rate g a.i./ha: imidacloprid 72, (I-2) 24, mixture 72 + 24, methamidophos 480; tank mix with 0.1% a.i. methylated soya oil. The text has this: (§1) The expected activity for a given combination of two active substances can be calculated as described by S. R. Colby, Weeds 15 (1967), 20-22, as follows:
(§2) If the actual insecticidal kill efficiency is greater than calculated, then the combination is superadditive in its kill efficiency, i.e. a synergistic effect is present. In this case, the kill efficiency actually observed must be greater than the value for the expected kill efficiency (E) calculated with the abovementioned formula.
(§3) After the desired period of time, the kill efficiency is determined in %. Here, 100% means that all animals have been killed; 0% means that no animals have been killed.
Methamidophos (SL 600) was tested concomitantly as commercially available standard. The water application rate is 200 l/ha.

For test [2], the system named is red-banded stink bug (Piezodorus guildinii). Put plainly: Caged soybean plot trial against red-banded stink bug, kill efficiency of the adults. The format is in vivo. The note with it: application rate g a.i./ha: imidacloprid 70, (I-2) 24, mixture 72 + 24, methamidophos 480, tank mix with 0.1% a.i. methylated soya oil; for Kill efficiency as calculated by Abbott (%) 1 d: adults on soybean cv. CO-32, 1 day after spray treatment; for Kill efficiency as calculated by Abbott (%) 3 d: adults on soybean cv. CO-32, 3 days after spray treatment.
From the text: as §1, §2, §3
Plots approximately 1 m^2 in size, provided with cages and planted with soybean plants (Glycine max) cv. “CO-32” are treated in four replications against the red-banded stink bug (Piezodorus guildinii) using a pneumatically operated backpack sprayer. A mixture of the active substance (I-2) and imidacloprid (SC 480) is applied in comparison with the active substance (I-2) (SC 240) on its own and imidacloprid (SC 200) on its own at the application rates specified, as a tank mix with 0.1% a.i. methylated soya oil (EC 850). Methamidophos (SL 600) was tested concomitantly as commercially available standard. The water application rate is 300 l/ha. The evaluation is performed 1 and 3 days after the treatment by determining the kill efficiency of the adults.

Here are results for two compounds from US8691863B2, “Use of active substance combinations having insecticidal properties for controlling animal pests from the stink bug family” (Bayer CropScience AG, priority 2007, dated 2014).

Consider `O=[N+]([O-])/N=C1\NCCN1Cc1ccc(Cl)nc1` [Imidacloprid, imidacloprid], for which the “Kill efficiency as calculated by Abbott (%) 14 d” value in test [1] was 21%. For the same compound, in test [2], the “Kill efficiency as calculated by Abbott (%) 1 d” value is reported as 65% and the “Kill efficiency as calculated by Abbott (%) 3 d” value is on record as 65%.
As to `COP(N)(=O)SC` (stereo not drawn) [Methamidophos], the “Kill efficiency as calculated by Abbott (%) 14 d” value in test [1] is 27%. In addition, in test [2], the “Kill efficiency as calculated by Abbott (%) 1 d” value is given as 52.5% and the “Kill efficiency as calculated by Abbott (%) 3 d” value is 87.5%.
